Where “and” joins values, the source holds several entries; their conditions need not be identical. Identical values can stand only once. Inconclusive results and toxic doses are left out. No stated cut-off is given here; in the data, active means T/C of 150% or more; inactive means T/C below 125%.
System: L1210 leukemia ip in BDF1 mice, survival T/C
Test: NCI In Vivo Anticancer Drug Screen. Data for tumor model L1210 Leukemia (intraperitoneal) in B6D2F1 (BDF1) mice
Settings: endpoint: mean survival time, higher = longer survival
Procedure, shortened: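 Transplantable tumor model; survival measured in treated vs vehicle control mice. Value = treated/control.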

[1] = dose: 100.0 mg/kg/injection, schedule: Q01DX009 (ip), vehicle: saline with Tween-80
[2] = dose: 200.0 mg/kg/injection, schedule: Q01DX009 (ip), vehicle: saline with Tween-80
[3] = dose: 400.0 mg/kg/injection, schedule: Q01DX009 (ip), vehicle: saline with Tween-80
[4] = dose: 50.0 mg/kg/injection, schedule: Q01DX001 (ip), vehicle: saline
[5] = dose: 100.0 mg/kg/injection, schedule: Q01DX001 (ip), vehicle: saline
[6] = dose: 100.0 mg/kg/injection, schedule: Q04DX003 (ip), vehicle: Klucel (hydroxypropylcellulose) (HPC)
[7] = dose: 200.0 mg/kg/injection, schedule: Q04DX003 (ip), vehicle: Klucel (hydroxypropylcellulose) (HPC)
[8] = dose: 400.0 mg/kg/injection, schedule: Q04DX003 (ip), vehicle: Klucel (hydroxypropylcellulose) (HPC)
[9] = dose: 100.0 mg/kg/injection, schedule: Q01DX009 (ip), vehicle: saline
[10] = dose: 200.0 mg/kg/injection, schedule: Q01DX001 (ip), vehicle: saline
[11] = dose: 200.0 mg/kg/injection, schedule: Q01DX009 (ip), vehicle: saline
[12] = dose: 100.0 mg/kg/injection, schedule: Q01DX009 (ip), vehicle: Klucel (hydroxypropylcellulose) (HPC)
[13] = dose: 400.0 mg/kg/injection, schedule: Q01DX009 (ip), vehicle: saline
[14] = dose: 100.0 mg/kg/injection, schedule: Q01DX001 (ip), vehicle: saline with Tween-80
[15] = dose: 200.0 mg/kg/injection, schedule: Q01DX001 (ip), vehicle: saline with Tween-80
[16] = dose: 200.0 mg/kg/injection, schedule: Q01DX009 (ip), vehicle: Klucel (hydroxypropylcellulose) (HPC)
[17] = dose: 400.0 mg/kg/injection, schedule: Q01DX009 (ip), vehicle: Klucel (hydroxypropylcellulose) (HPC)

Measured: T/C

CO/C=C1\Cc2cc(OC)c(OC)cc2C1=O
inactive: [1] 102 % of control | [2] 104 % of control | [3] 94 % of control

NC(=O)c1ccc([N+](=O)[O-])cc1C(N)=O
inactive: dose: 25.0 mg/kg/injection, schedule: Q01DX001 (ip), vehicle: saline 111 % of control | [4] 97 % of control | [5] 104 % of control

CC(=O)OC1CCC2(C)C3CCC4(C)C(OC(=O)c5ccccc5)CCC4C3C3C(=O)OC32C1 (stereo not given)
inactive: [6] 95 % of control | [7] 95 % of control | [8] 95 % of control

O=[N+]([O-])c1ccc(NCCNC(c2ccccc2)(c2ccccc2)c2ccccc2)c([N+](=O)[O-])c1
inactive: dose: 50.0 mg/kg/injection, schedule: Q01DX009 (ip), vehicle: saline 96 % of control | [5] 87 % of control | [9] 91 % of control | [10] 90 % of control | [11] 93 % of control

OCC1SCCS1
inactive: dose: 100.0 mg/kg/injection, schedule: Q04DX002 (ip), vehicle: saline with Tween-80 101 % of control | dose: 200.0 mg/kg/injection, schedule: Q04DX002 (ip), vehicle: saline with Tween-80 97 % of control | dose: 400.0 mg/kg/injection, schedule: Q04DX002 (ip), vehicle: saline with Tween-80 90 % of control

c1cc[c]([Sn]([c]2ccccc2)([c]2ccccc2)[c]2ccccc2)cc1
inactive: dose: 50.0 mg/kg/injection, schedule: Q01DX009 (ip), vehicle: saline with Tween-80 95 % of control | [1] 90 % of control | [2] 100 % of control

CCN(CC)CCNCC(Cc1ccccc1)c1ccccc1 (stereo not given)
inactive: dose: 100.0 mg/kg/injection, schedule: Q04DX002 (ip), vehicle: saline 99 % of control | dose: 200.0 mg/kg/injection, schedule: Q04DX002 (ip), vehicle: saline 105 % of control

CCCCc1c(O)nc(NCCCC(N)C(=O)O)[nH]c1=O (stereo not given)
inactive: dose: 75.0 mg/kg/injection, schedule: Q01DX001 (ip), vehicle: saline 93 % of control | dose: 150.0 mg/kg/injection, schedule: Q01DX001 (ip), vehicle: saline 95 % of control | dose: 300.0 mg/kg/injection, schedule: Q01DX001 (ip), vehicle: saline 96 % of control

ClC(Cl)(Cl)C(N1CCN(c2ccccc2)CC1)N1CCN(c2ccccc2)CC1
inactive: dose: 100.0 mg/kg/injection, schedule: Q01DX001 (ip), vehicle: carboxymethylcellulose (CMC) 101 % of control | dose: 200.0 mg/kg/injection, schedule: Q01DX001 (ip), vehicle: carboxymethylcellulose (CMC) 106 % of control | dose: 400.0 mg/kg/injection, schedule: Q01DX001 (ip), vehicle: carboxymethylcellulose (CMC) 89 % of control

O=C1Cc2ccccc21
inactive: [1] 97 % of control | dose: 100.0 mg/kg/injection, schedule: Q04DX003 (ip), vehicle: saline with Tween-80 95 % of control | [2] 97 % of control | dose: 200.0 mg/kg/injection, schedule: Q04DX003 (ip), vehicle: saline with Tween-80 94 % of control | [3] 96 % of control | dose: 400.0 mg/kg/injection, schedule: Q04DX003 (ip), vehicle: saline with Tween-80 98 % of control

CC(=O)OC(=O)c1ccc2c(c1)C(=O)c1ccccc1C2=O
inactive: dose: 25.0 mg/kg/injection, schedule: Q01DX009 (ip), vehicle: Klucel (hydroxypropylcellulose) (HPC) 100 % of control | dose: 50.0 mg/kg/injection, schedule: Q01DX001 (ip), vehicle: Klucel (hydroxypropylcellulose) (HPC) 105 % of control | dose: 50.0 mg/kg/injection, schedule: Q01DX009 (ip), vehicle: Klucel (hydroxypropylcellulose) (HPC) 98 % of control | dose: 100.0 mg/kg/injection, schedule: Q01DX001 (ip), vehicle: Klucel (hydroxypropylcellulose) (HPC) 111 % of control | [12] 102 % of control | [6] 100 % of control | dose: 200.0 mg/kg/injection, schedule: Q01DX001 (ip), vehicle: Klucel (hydroxypropylcellulose) (HPC) 111 % of control | dose: 400.0 mg/kg/injection, schedule: Q01DX001 (ip), vehicle: Klucel (hydroxypropylcellulose) (HPC) 96 % of control and 105 % of control

O=C1NOCC1N=Cc1ccccc1O (stereo not given)
inactive: [6] 102 % of control | [7] 98 % of control | [8] 101 % of control

O=P(OCc1ccccc1)(N(CCO)CCO)N(CCCl)CCCl (stereo not given)
inactive: dose: 25.0 mg/kg/injection, schedule: Q01DX Z (ip), vehicle: saline 91 % of control | dose: 50.0 mg/kg/injection, schedule: Q01DX Z (ip), vehicle: saline 100 % of control | dose: 100.0 mg/kg/injection, schedule: Q01DX Z (ip), vehicle: saline 94 % of control | dose: 200.0 mg/kg/injection, schedule: Q01DX Z (ip), vehicle: saline 103 % of control

COC(=O)C1CCC1(C#N)C(=O)OC (stereo not given)
inactive: [9] 93 % of control | dose: 100.0 mg/kg/injection, schedule: Q04DX003 (ip), vehicle: saline 98 % of control | [11] 92 % of control | dose: 200.0 mg/kg/injection, schedule: Q04DX003 (ip), vehicle: saline 98 % of control | [13] 109 % of control | dose: 400.0 mg/kg/injection, schedule: Q04DX003 (ip), vehicle: saline 106 % of control

O=P(c1c(F)c(F)c(F)c(F)c1F)(c1c(F)c(F)c(F)c(F)c1F)c1c(F)c(F)c(F)c(F)c1F
inactive: [14] 91 % of control | [15] 91 % of control

CCOC(=O)c1nc(N)nc(N)c1-c1ccc(Cl)cc1
inactive: dose: 25.0 mg/kg/injection, schedule: Q01DX001 (ip), vehicle: saline with Tween-80 98 % of control | dose: 50.0 mg/kg/injection, schedule: Q01DX001 (ip), vehicle: saline with Tween-80 104 % of control | [14] 102 % of control

Cc1c(C)c(C)c(CNNC(=S)Nc2cccc(Cl)c2)c(C)c1C
inactive: [12] 95 % of control | [16] 91 % of control | [17] 91 % of control

O=C(CCCC(=O)NNC(=S)Nc1ccc2ccccc2c1)NNC(=S)Nc1ccc2ccccc2c1
inactive: [4] 98 % of control | [5] 93 % of control | [10] 93 % of control | dose: 400.0 mg/kg/injection, schedule: Q01DX001 (ip), vehicle: saline 90 % of control

CC(C)(C)C1CCCC(=O)CC1 (stereo not given)
inactive: [4] 102 % of control

O=[N+]([O-])C=C1CCCCC1
inactive: [14] 101 % of control | [15] 109 % of control

CC/C=C/c1cccc(OC)c1
inactive: [12] 102 % of control | [6] 105 % of control | [16] 96 % of control | [7] 110 % of control | [17] 95 % of control | [8] 96 % of control

COC(=O)C12N=NN(c3ccccc3)C1(C(=O)OC)C1CCC2C1 (stereo not given)
inactive: [1] 106 % of control | [6] 96 % of control | [2] 94 % of control | [7] 102 % of control | [3] 98 % of control | [8] 97 % of control

C1COC(C2OCCO2)C1 (stereo not given)
inactive: [9] 103 % of control | [11] 90 % of control | [13] 95 % of control
